In ChEMBL document CHEMBL4118195, “Synthesis and profiling of benzylmorpholine 1,2,4,5-tetraoxane analogue N205: Towards tetraoxane scaffolds with potential for single dose cure of malaria” (Bioorg Med Chem, 2018):

What was measured:
[1] = Drug degradation in human liver microsomes assessed as compound half life at 5 uM by UPLC-MS method; type: ADME, microsome
[2] = Drug degradation in rat liver microsomes assessed as compound half life at 1 uM by UPLC-MS method; type: ADME, microsome
[3] = Drug degradation in rat liver microsomes assessed as compound half life at 5 uM by UPLC-MS method; type: ADME, microsome
[4] = Intrinsic clearance in human liver microsomes assessed per mg protein at 1 uM by UPLC-MS analysis; type: ADME, microsome; settings: read-out: CLH
[5] = Intrinsic clearance in human liver microsomes assessed per mg protein at 5 uM by UPLC-MS analysis; type: ADME, microsome; settings: read-out: CLH
[6] = Drug metabolism in rat liver microsomes assessed as metabolite 4-(4-(morpholinomethyl)phenyl)cyclohexanol formation at 5 uM after 60 mins by UPLC-MS analysis; type: ADME, microsome; settings: 1 h
[7] = Drug metabolism in human liver microsomes assessed as metabolite M+16 (V) formation at 5 uM after 60 mins by UPLC-MS analysis; type: ADME, microsome; settings: 1 h
[8] = Drug metabolism in rat liver microsomes assessed as metabolite M+32 (II) formation at 5 uM after 60 mins by UPLC-MS analysis; type: ADME, microsome; settings: 1 h
[9] = Drug metabolism in human liver microsomes assessed as metabolite M+32 (III) formation at 5 uM after 60 mins by UPLC-MS analysis; type: ADME, microsome; settings: 1 h
[10] = Drug metabolism in mouse liver microsomes assessed as metabolite M+32 (IV) formation at 5 uM after 60 mins by UPLC-MS analysis; type: ADME, microsome; settings: 1 h
[11] = Drug metabolism in mouse liver microsomes assessed as metabolite M+32 (V) formation at 5 uM after 60 mins by UPLC-MS analysis; type: ADME, microsome; settings: 1 h
[12] = Drug metabolism in mouse liver microsomes at 5 uM after 60 mins by UPLC-MS analysis; type: ADME, microsome; settings: read-out: Drug metabolism
[13] = Drug metabolism in human liver microsomes assessed as ring dehydrogenated metabolite formation at 5 uM after 60 mins by UPLC-MS analysis; type: ADME, microsome; settings: 1 h
[14] = Drug metabolism in rat liver microsomes assessed as morpholine ring opened metabolite formation at 5 uM after 60 mins by UPLC-MS analysis; type: ADME, microsome; settings: 1 h
[15] = Drug metabolism in mouse liver microsomes assessed as morpholine ring opened metabolite formation at 5 uM after 60 mins by UPLC-MS analysis; type: ADME, microsome; settings: 1 h
[16] = Drug metabolism in human liver microsomes assessed as morpholine dealkylated metabolite formation at 5 uM after 60 mins by UPLC-MS analysis; type: ADME, microsome; settings: 1 h
[17] = Drug metabolism in rat liver microsomes assessed as morpholine dealkylated metabolite formation at 5 uM after 60 mins by UPLC-MS analysis; type: ADME, microsome; settings: 1 h
[18] = Drug metabolism in rat liver microsomes assessed as cleaved morpholine ring metabolite formation at 5 uM after 60 mins by UPLC-MS analysis; type: ADME, microsome; settings: 1 h
[19] = Drug metabolism in mouse liver microsomes assessed as cleaved morpholine ring metabolite formation at 5 uM after 60 mins by UPLC-MS analysis; type: ADME, microsome; settings: 1 h
[20] = Drug metabolism in human liver microsomes assessed as open morpholine ring metabolite formation at 5 uM after 60 mins by UPLC-MS analysis; type: ADME, microsome; settings: 1 h
[21] = Drug metabolism in rat liver microsomes assessed as open morpholine ring metabolite formation at 5 uM after 60 mins by UPLC-MS analysis; type: ADME, microsome; settings: 1 h
[22] = Drug metabolism in mouse liver microsomes assessed as deaminated morpholine acid metabolite formation at 5 uM after 60 mins by UPLC-MS analysis; type: ADME, microsome; settings: 1 h
[23] = Drug metabolism in mouse liver microsomes assessed as bis-oxygenation and dehydrogenation metabolite formation at 5 uM after 60 mins by UPLC-MS analysis; type: ADME, microsome; settings: 1 h
[24] = Drug metabolism in human liver microsomes assessed as mono-oxygenation and dehydrogenation metabolite formation at 5 uM after 60 mins by UPLC-MS analysis; type: ADME, microsome; settings: 1 h
[25] = Drug metabolism in rat liver microsomes assessed as mono-oxygenation and dehydrogenation metabolite formation at 5 uM after 60 mins by UPLC-MS analysis; type: ADME, microsome; settings: 1 h
Cytochrome P450 3A4 = Cytochrome P450 3A4 (Homo sapiens, UniProt P08684); test: Inhibition of CYP3A4 in human liver microsomes assessed as midazolam 1'-hydroxylation after 4 to 40 mins in presence of NADPH by LCMS analysis; type: ADME
Sequence of Cytochrome P450 3A4 (P08684 whole entry): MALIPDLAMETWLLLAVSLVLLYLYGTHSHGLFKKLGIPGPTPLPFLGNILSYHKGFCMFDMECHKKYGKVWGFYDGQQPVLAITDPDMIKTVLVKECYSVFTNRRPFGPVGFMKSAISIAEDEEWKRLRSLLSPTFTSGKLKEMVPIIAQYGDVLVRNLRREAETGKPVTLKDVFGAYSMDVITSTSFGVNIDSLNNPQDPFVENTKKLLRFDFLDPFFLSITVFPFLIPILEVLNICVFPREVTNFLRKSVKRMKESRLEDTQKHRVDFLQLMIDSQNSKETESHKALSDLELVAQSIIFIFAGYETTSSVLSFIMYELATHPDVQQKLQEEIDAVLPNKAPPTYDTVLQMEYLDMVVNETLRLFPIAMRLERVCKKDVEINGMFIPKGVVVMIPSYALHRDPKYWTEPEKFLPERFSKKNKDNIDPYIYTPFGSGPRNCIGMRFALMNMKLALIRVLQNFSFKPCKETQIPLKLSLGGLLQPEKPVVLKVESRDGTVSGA

Plasmodium falciparum = test: Antimalarial activity against Plasmodium falciparum Pf3D70087/N9 infected in po dosed humanized NOD.Cg-Prkdcscid Il2rgtm1Wjl/SzJ mouse assessed as reduction in parasitemia administered as single dose measured on day 7 post infection by SYTO-16 dye-based flow cytometric analysis; type: functional; settings: 168 h
[26] = Cmax in humanized NOD.Cg-Prkdcscid Il2rgtm1Wjl/SzJ mouse infected with Plasmodium falciparum Pf3D70087/N9 at 30 mg/kg, po administered as single dose after 0.25 to 23 hrs by LC-MS/MS analysis; type: ADME, organism-based; design: dose 30 mg/kg, route oral; settings: in vivo
[27] = Tmax in humanized NOD.Cg-Prkdcscid Il2rgtm1Wjl/SzJ mouse infected with Plasmodium falciparum Pf3D70087/N9 at 15 mg/kg, po administered as single dose by LC-MS/MS analysis; type: ADME, organism-based; settings: in vivo
[28] = Tmax in humanized NOD.Cg-Prkdcscid Il2rgtm1Wjl/SzJ mouse infected with Plasmodium falciparum Pf3D70087/N9 at 30 mg/kg, po administered as single dose by LC-MS/MS analysis; type: ADME, organism-based; settings: in vivo
[29] = Tmax in humanized NOD.Cg-Prkdcscid Il2rgtm1Wjl/SzJ mouse infected with Plasmodium falciparum Pf3D70087/N9 at 50 mg/kg, po administered as single dose by LC-MS/MS analysis; type: ADME, organism-based; settings: in vivo
[30] = Tmax in humanized NOD.Cg-Prkdcscid Il2rgtm1Wjl/SzJ mouse infected with Plasmodium falciparum Pf3D70087/N9 at 100 mg/kg, po administered as single dose by LC-MS/MS analysis; type: ADME, organism-based; settings: in vivo
[31] = AUC (0 to t) in humanized NOD.Cg-Prkdcscid Il2rgtm1Wjl/SzJ mouse infected with Plasmodium falciparum Pf3D70087/N9 at 30 mg/kg, po administered as single dose by LC-MS/MS analysis; type: ADME, organism-based; settings: in vivo
[32] = AUC (0 to t) in humanized NOD.Cg-Prkdcscid Il2rgtm1Wjl/SzJ mouse infected with Plasmodium falciparum Pf3D70087/N9 at 100 mg/kg, po administered as single dose by LC-MS/MS analysis; type: ADME, organism-based; settings: in vivo
Mus musculus [33] = test: Dose normalized AUC (0 to t) in humanized NOD.Cg-Prkdcscid Il2rgtm1Wjl/SzJ mouse infected with Plasmodium falciparum Pf3D70087/N9 at 15 mg/kg, po administered as single dose by LC-MS/MS analysis; type: ADME, organism-based; settings: in vivo
Mus musculus [34] = test: Dose normalized AUC (0 to t) in humanized NOD.Cg-Prkdcscid Il2rgtm1Wjl/SzJ mouse infected with Plasmodium falciparum Pf3D70087/N9 at 30 mg/kg, po administered as single dose by LC-MS/MS analysis; type: ADME, organism-based; settings: in vivo
Mus musculus [35] = test: Dose normalized AUC (0 to t) in humanized NOD.Cg-Prkdcscid Il2rgtm1Wjl/SzJ mouse infected with Plasmodium falciparum Pf3D70087/N9 at 50 mg/kg, po administered as single dose by LC-MS/MS analysis; type: ADME, organism-based; settings: in vivo
[36] = Half life in Sprague-Dawley rat at 10 mg/kg, po; type: ADME, organism-based; settings: in vivo

`c1cc(C2CCC3(CC2)OOC2(OO3)C3CC4CC(C3)CC2C4)ccc1CN1CCOCC1` (stereo not drawn) showed a half-life at 5 µM [1] of 43 min, a half-life at 1 µM [2] of 15 min and a half-life at 5 µM [3] of 20 min. The microsomal CLint at 1 µM [4] was 51 µL/min/mg, the microsomal CLint at 5 µM [5] was 41 µL/min/mg and the Drug metabolism [6] was “Metabolite_Detected”. For the same compound, the Drug metabolism [7] was “Metabolite_Detected”, the Drug metabolism [8] was “Metabolite_Notdetected” and the Drug metabolism [9] was “Metabolite_Notdetected”. For the same compound, the Drug metabolism [10] was “Metabolite_Detected”, the Drug metabolism [11] was “Metabolite_Notdetected” and the metabolised at 1 h, 5 µM [12] was 39%. The Drug metabolism [13] was “Metabolite_Notdetected”, the Drug metabolism [14] was “Metabolite_Notdetected” and the Drug metabolism [15] was “Metabolite_Notdetected”. For the same compound, the Drug metabolism [16] was “Metabolite_Notdetected”, the Drug metabolism [17] was “Metabolite_Notdetected” and the Drug metabolism [18] was “Metabolite_Notdetected”. The Drug metabolism [19] was “Metabolite_Notdetected”, the Drug metabolism [20] was “Metabolite_Notdetected” and the Drug metabolism [21] was “Metabolite_Notdetected”. The Drug metabolism [22] was “Metabolite_Notdetected”, the Drug metabolism [23] was “Metabolite_Notdetected” and the Drug metabolism [24] was “Metabolite_Notdetected”. For the same compound, the Drug metabolism [25] was “Metabolite_Notdetected”, the IC50 (Cytochrome P450 3A4) was greater than 20 µM and the ED90 (Plasmodium falciparum) was 8.6 mg/kg. The Cmax [26] was 148 ng/mL, the Tmax [27] was 60 min and the Tmax [28] was 60 min. It also gave a Tmax [29] of 120 min, a Tmax [30] of 30 min and an AUC(0-t) [31] of 940 ng·h/mL. The AUC(0-t) [32] was 2320 ng·h/mL, the AUCt/dose (Mus musculus [33]) was 0.0499 µg·h/mL/mg/kg and the AUCt/dose (Mus musculus [34]) was 0.0313 µg·h/mL/mg/kg. For the same compound, the AUCt/dose (Mus musculus [35]) was 0.0599 µg·h/mL/mg/kg and the half-life [36] was 1020 min.
